According to the NIST ThermoML archive (doi:10.1021/je060271a):

Details: Liquid, Vibrating tube method

CCCCCCC(=O)OCC(COC(=O)CCCCCC)(COC(=O)CCCCCC)COC(=O)CCCCCC [pentaerythritol tetraheptanoate]
Details	mass density [kg/m3]
283.14 K, 30730 kPa	1002.4
283.14 K, 30755 kPa	1002.4
283.14 K, 30785 kPa	1002.4
283.14 K, 30810 kPa	1002.4
283.14 K, 30836 kPa	1002.5
283.14 K, 30861 kPa	1002.5
283.14 K, 30892 kPa	1002.6
283.14 K, 30917 kPa	1002.5
283.14 K, 30943 kPa	1002.5
283.14 K, 30974 kPa	1002.6
283.14 K, 30999 kPa	1002.5
283.14 K, 31030 kPa	1002.6
283.14 K, 31056 kPa	1002.5
283.14 K, 31082 kPa	1002.6
283.14 K, 31108 kPa	1002.7
283.14 K, 31138 kPa	1002.5
283.14 K, 31165 kPa	1002.5
283.14 K, 31191 kPa	1002.7
283.14 K, 31223 kPa	1002.6
283.14 K, 31249 kPa	1002.7
283.14 K, 31275 kPa	1002.7
283.14 K, 31306 kPa	1002.7
283.14 K, 31332 kPa	1002.7
283.14 K, 31358 kPa	1002.7
283.14 K, 31390 kPa	1002.7
283.14 K, 31416 kPa	1002.8
283.14 K, 31443 kPa	1002.8
283.14 K, 31474 kPa	1002.7
283.14 K, 31501 kPa	1002.8
283.14 K, 31533 kPa	1002.8
283.14 K, 31560 kPa	1002.7
283.14 K, 31587 kPa	1002.8
283.14 K, 31614 kPa	1002.8
283.14 K, 31646 kPa	1002.9
283.14 K, 31672 kPa	1002.9
283.14 K, 31699 kPa	1003
283.14 K, 31732 kPa	1002.8
283.14 K, 31759 kPa	1002.8
283.14 K, 31791 kPa	1002.9
283.14 K, 31818 kPa	1002.9
283.14 K, 31845 kPa	1003
283.14 K, 31878 kPa	1002.9
283.14 K, 31905 kPa	1003.1
283.14 K, 31932 kPa	1002.9
283.14 K, 31960 kPa	1003
283.14 K, 31994 kPa	1003
283.14 K, 32021 kPa	1003
283.14 K, 32054 kPa	1003.1
283.14 K, 32082 kPa	1003
283.14 K, 32109 kPa	1003.2
283.14 K, 32143 kPa	1003.1
283.14 K, 32170 kPa	1003.1
283.14 K, 32198 kPa	1003.1
283.14 K, 32231 kPa	1003.2
283.14 K, 32260 kPa	1003.1
283.14 K, 32288 kPa	1003.2
283.14 K, 32321 kPa	1003.2
283.14 K, 32350 kPa	1003.3
283.14 K, 32378 kPa	1003.2
283.14 K, 32406 kPa	1003.3
283.14 K, 32441 kPa	1003.2
283.14 K, 32469 kPa	1003.3
283.14 K, 32503 kPa	1003.3
283.14 K, 32531 kPa	1003.3
283.14 K, 32560 kPa	1003.4
283.14 K, 32595 kPa	1003.3
283.14 K, 32624 kPa	1003.5
283.14 K, 32653 kPa	1003.3
283.14 K, 32687 kPa	1003.3
283.14 K, 32718 kPa	1003.3
283.14 K, 32747 kPa	1003.4
283.14 K, 32776 kPa	1003.4
283.14 K, 32810 kPa	1003.5
283.14 K, 32840 kPa	1003.5
283.14 K, 32869 kPa	1003.5
283.14 K, 32898 kPa	1003.6
283.14 K, 32934 kPa	1003.4
283.14 K, 32963 kPa	1003.5
283.14 K, 32992 kPa	1003.5
283.14 K, 33028 kPa	1003.6
283.14 K, 33057 kPa	1003.6
283.14 K, 33093 kPa	1003.5
283.14 K, 33125 kPa	1003.6
283.14 K, 33155 kPa	1003.7
283.14 K, 33185 kPa	1003.6
283.14 K, 33215 kPa	1003.7
283.14 K, 33251 kPa	1003.7
283.14 K, 33281 kPa	1003.7
283.14 K, 33311 kPa	1003.6
283.14 K, 33347 kPa	1003.7
283.14 K, 33377 kPa	1003.6
283.14 K, 33414 kPa	1003.7
283.14 K, 33444 kPa	1003.8
283.14 K, 33474 kPa	1003.8
283.14 K, 33511 kPa	1003.8
283.14 K, 33542 kPa	1003.9
283.14 K, 33572 kPa	1003.8
283.14 K, 33604 kPa	1003.8
283.14 K, 33641 kPa	1003.9
283.14 K, 33671 kPa	1003.9
283.14 K, 33708 kPa	1003.8
283.14 K, 33739 kPa	1003.8
283.14 K, 33770 kPa	1003.8
283.14 K, 33808 kPa	1004
283.14 K, 33839 kPa	1004
283.14 K, 33870 kPa	1003.9
283.14 K, 33907 kPa	1004
283.14 K, 33938 kPa	1003.9
283.14 K, 34406 kPa	1004.3
283.14 K, 34575 kPa	1004.3
283.14 K, 34576 kPa	1004.3
283.15 K, 100.4 kPa	985.9
